Test results from patent US10342804B2, “Steroid compound for use in the treatment of hepatic encephalopathy” (Umecrine Cognition AB, priority 2014, dated 2019).

Experiments:
Format in all cases: in vivo, rat
hyperammonemic rats [1] = assay: Spatial learning in the Radial maze, chronic hyperammonemia model (Example 2); conditions: 20 mg/kg s.c. once daily, 6th-7th week of treatment
From the text: In this study an animal model of chronic hyperammonemia was used that reproduces many of the cognitive and motor alterations present in hepatic encephalopathy. Rats were fed with ammonia in their food and after two weeks with ammonia enriched food they developed symptoms of hepatic encephalopathy. The beam walking test was made during the 3rd and 4th week of 3α-ethynyl-3β-hydroxyandrostan-17-one oxime treatment while the Morris Water maze test was made during 4th-5th week of 3α-ethynyl-3β-hydroxyandrostan-17-one oxime treatment and the Radial maze test was made during 6th-7th week of 3α-ethynyl-3β-hydroxyandrostan-17-one oxime treatment.
The study was divided into two series with animals (male Wistar rats), each series included the following groups; Controls treated with vehicle (CV, n=8 per series), Controls treated with 3α-ethynyl-3β-hydroxyandrostan-17-one oxime (C+GAM, n=8 per series), hyperammonemic rats treated with vehicle (HAV, n=8 per series), hyperammonemic rats treated with 3α-ethynyl-3β-hydroxyandrostan-17-one oxime (HA+GAM, n=8 per series). […]
Training in the radial maze was composed of five blocks of three trials each, performed on ten consecutive days. […] The number of spatial reference errors and working memory were calculated and expressed as number of reference and working errors per block. […]

blood ammonia = assay: Blood ammonia, PCS rats (Example 12)
Method: Male Wistar rats (220-240 g) were anesthetized with isoflurane, and an end-to side porta-caval anastomosis was performed as described by Lee and Fisher (Surgery, 1961, 50, 668-672).
Rats that were subjected to the porta-caval anastomosis procedure are herein referred to as “PCS rats”.
(§1) 3α-ethynyl-3β-hydroxyandrostan-17-one oxime in sesame oil was administered by subcutaneous injections in the back of the rats, once daily. Two different sets of experiments were performed in hyperammonemic rats. In the first set four groups of rats were used: 1) control rats injected with vehicle; 2) hyperammonemic rats injected with vehicle; 3) control rats injected with 20 mg/Kg of 3α-ethynyl-3β-hydroxyandrostan-17-one oxime and 4) hyperammonemic rats injected with 20 mg/Kg of 3α-ethynyl-3β-hydroxyandrostan-17-one oxime.
For the experiments using PCS rats, the following groups of rats were used: 1) Sham rats injected with vehicle; 2) PCS rats injected with vehicle; 3-4) PCS rats injected with 0.7 or 2.5 mg/Kg of 3α-ethynyl-3β-hydroxyandrostan-17-one oxime. The number of rats used in each experiment is either shown in the corresponding Figure or given in the description of the corresponding Figure.
Blood ammonia was measured using the kit II Ammonia Arkray test (PocketChem BA, Arkray) using 20 μL of fresh blood following manufacturer's specifications.

hyperammonemic rats [2] = assay: Morris water maze memory test, hyperammonemic rats (Example 9)
Method: (§2) Male Wistar rats (140-160 g) were made hyperammonemic by feeding them a diet containing ammonium acetate (30% by weight) (Felipo et al, European Journal of Biochemistry, 1988, 176, 567-571).
as §1
(§3) In the second set of experiments five groups of rats were used: 1) control rats injected with vehicle; 2) hyperammonemiac rats injected with vehicle and 3-5) hyperammonemic rats injected with 3, 10 or 20 mg/Kg of 3α-ethynyl-3β-hydroxyandrostan-17-one oxime. In each experiment 6-8 rats per group were used.
The test was carried out as described by Monfort et al. (European Journal of Neuroscience, 2007, 25, 2103-2111) using a circular pool (160 cm diameter, 40 cm height) arbitrarily divided into four quadrants. After pre-training, the rats were trained to learn the fixed location of the invisible platform over 3 days. Training involved placing the rat into the pool facing the wall in one of the three quadrants lacking the platform. A different starting point was randomly used on each trial. Training consisted of three swims per day. Each animal was allowed a maximum of 120 seconds to find the platform and was left for 20 seconds on the platform. […] The time needed to find the hidden platform was recorded manually and used as a measure of learning of the task.
Spatial memory was assessed 24 hours later by removing the platform and measuring the time spent by the rat in the quadrant where the platform was.

hyperammonemic rats [3] = assay: Beam walking test, hyperammonemic rats (Example 8)
Method: as §2
3α-ethynyl-3β-hydroxyandrostan-17-one oxime in sesame oil was administered by subcutaneous injections in the back of the rats, once daily. Two different sets of experiments were performed in hyperammonemic rats. In the first set four groups of rats were used: 1) control rats injected with vehicle; 2) hyperammonemic rats injected with vehicle; 3) control rats injected with 20 mg/Kg of 3α-ethynyl-3β-hydroxyandrostan-17-one oxime and 4) hyperammonemic rats injected with 20 mg/Kg of 3α-ethynyl-3β-hydroxyandrostan-17-one oxime. […]
Motor coordination was tested as described by Gonzalez-Usano et al (ACS Chemical Neuroscience, 2014, 19, 5(2), 100-105) using a wooden beam (20 mm diameter). Rats were made to traverse a one-meter-long wooden beam located approximately one meter above the ground, and the number of foot faults (slips) was recorded by two observers. The rats were trained for the test by being made to traverse the beam up to five times before measurements were recorded. […]

hyperammonemic rats [4] = assay: Radial maze test, hyperammonemic rats (Example 10)
Method: as §2, §1, §3
The apparatus was composed of a central area that gave access to eight equally-sized arms. The arms were 70 cm long and 10 cm wide and the central area was 30 cm in diameter. […] Rats were allowed to explore the maze for 10 minutes on two consecutive days in the presence of distal cues to adapt to the maze. Training in the radial maze was composed of three trials per day on six consecutive days. The task involved locating four pellets, each placed at the end of a different arm according to a random configuration as described by Hernandez-Rabaza et al. (Addiction Biology, 2010, 15, 413-423). The number of working memory errors (visits to arms already visited in the same trial) were recorded and expressed as working errors.

C#C[C@]1(O)CC[C@@]2(C)C(CC[C@@H]3[C@@H]2CC[C@]2(C)/C(=N\O)CC[C@@H]32)C1 (stereo partly drawn) [3α-ethynyl-3β-hydroxyandrostan-17-one oxime]
Spatial learning/memory in the Radial maze (working errors) (hyperammonemic rats [1]): completely restored
Blood ammonia (blood ammonia; 0.7 mg/Kg): 302 ± 30 µM
Blood ammonia (blood ammonia; 2.5 mg/Kg): 294 ± 37 µM
Percentage of time spent in the correct quadrant, Morris water maze memory test (hyperammonemic rats [2]; 3 mg/kg): 41±4%
Percentage of time spent in the correct quadrant, Morris water maze memory test (hyperammonemic rats [2]; 10 mg/kg): 42±5%
Percentage of time spent in the correct quadrant, Morris water maze memory test (hyperammonemic rats [2]; 20 mg/kg): 38±3%
Number of slips, beam walking test (hyperammonemic rats [3]; 3 mg/kg s.c. once daily): 0.8±0.1 slips
Number of slips, beam walking test (hyperammonemic rats [3]; 20 mg/kg s.c. once daily): 0.78±0.07 slips
Number of working errors in days 1-2, radial maze (hyperammonemic rats [4]; 3 mg/kg): 6.5±2.8 errors
Number of working errors in days 1-2, radial maze (hyperammonemic rats [4]; 10 mg/kg): 8.8±1.9 errors
Number of working errors in days 1-2, radial maze (hyperammonemic rats [4]; 20 mg/kg): 12±2 errors
